Test results: ChEMBL document CHEMBL1201862, “PubChem BioAssay data set” (2004)
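Cells were grown in 96-well plates and exposed to each compound for 48 hours at five concentrations; endpoints were interpolated linearly between bracketing concentrations, or set to the highest concentration if not reached. GI50 is the concentration that inhibits growth by half.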 The source made the active and inactive calls. No stated cut-off is given here; in the data, active = GI50 up to about 1.1 µM and inactive = higher.

Key:
Test in all cases: DTP human tumour cell line panel, 48 h
[1] = test system: 786-0
[2] = test system: A498
[3] = test system: A549
[4] = test system: ACHN
[5] = test system: BT-549
[6] = test system: CAKI-1
[7] = test system: CCRF-CEM
[8] = test system: COLO 205
[9] = test system: DU-145
[10] = test system: EKVX
[11] = test system: HCC 2998
[12] = test system: HCT-116
[13] = test system: HCT-15
[14] = test system: HL-60
[15] = test system: HOP-62
[16] = test system: HOP-92
[17] = test system: HT-29
[18] = test system: Hs-578T
[19] = test system: IGROV-1
[20] = test system: K562
[21] = test system: KM12
[22] = test system: LOX IMVI
[23] = test system: M14
[24] = test system: MCF7
[25] = test system: MDA-MB-231
[26] = test system: MDA-MB-435
[27] = test system: MDA-N
[28] = test system: MOLT-4
[29] = test system: Malme-3M
[30] = test system: NCI-H226
[31] = test system: NCI-H23
[32] = test system: NCI-H460
[33] = test system: NCI-H522
[34] = test system: NCI/ADR-RES
[35] = test system: OVCAR-3
[36] = test system: OVCAR-4
[37] = test system: OVCAR-5
[38] = test system: OVCAR-8
[39] = test system: PC-3
[40] = test system: RXF 393
[41] = test system: SF-268
[42] = test system: SF-295
[43] = test system: SF-539
[44] = test system: SK-MEL-28
[45] = test system: SK-MEL-2
[46] = test system: SK-MEL-5
[47] = test system: SK-OV-3
[48] = test system: SN12C
[49] = test system: SNB-19
[50] = test system: SNB-75
[51] = test system: SR
[52] = test system: SW-620
[53] = test system: T47D
[54] = test system: TK-10
[55] = test system: U-251
[56] = test system: UACC-257
[57] = test system: UACC-62
[58] = test system: UO-31
[59] = test system: RPMI-8226

CSC1=C(C)S/C(=C\c2ccc(/C=C3\SC(C)=C(SC)S3)cc2)S1
GI50 [1]: > 100 µM (inactive)
GI50 [2]: > 100 µM (inactive)
GI50 [3]: > 100 µM (inactive)
GI50 [4]: > 100 µM (inactive)
GI50 [5]: > 100 µM (inactive)
GI50 [6]: > 100 µM (inactive)
GI50 [7]: > 100 µM (inactive)
GI50 [8]: > 100 µM (inactive)
GI50 [9]: > 100 µM (inactive)
GI50 [10]: > 100 µM (inactive)
GI50 [11]: > 100 µM (inactive)
GI50 [12]: > 100 µM (inactive)
GI50 [13]: > 100 µM
GI50 [14]: > 100 µM (inactive)
GI50 [15]: 33.5 µM (inactive)
GI50 [16]: 39.3 µM (inactive)
GI50 [17]: > 100 µM (inactive)
GI50 [18]: 83 µM (inactive)
GI50 [19]: > 100 µM (inactive)
GI50 [20]: > 100 µM (inactive)
GI50 [21]: > 100 µM (inactive)
GI50 [22]: > 100 µM (inactive)
GI50 [23]: > 100 µM (inactive)
GI50 [24]: > 100 µM (inactive)
GI50 [25]: > 100 µM (inactive)
GI50 [26]: > 100 µM (inactive)
GI50 [27]: > 100 µM (inactive)
GI50 [28]: > 100 µM (inactive)
GI50 [29]: > 100 µM (inactive)
GI50 [30]: 92.5 µM (inactive)
GI50 [31]: > 100 µM (inactive)
GI50 [32]: > 100 µM (inactive)
GI50 [33]: > 100 µM (inactive)
GI50 [34]: > 100 µM (inactive)
GI50 [35]: > 100 µM (inactive)
GI50 [36]: > 100 µM (inactive)
GI50 [37]: > 100 µM (inactive)
GI50 [38]: > 100 µM (inactive)
GI50 [39]: > 100 µM (inactive)
GI50 [40]: 21.6 µM (inactive)
GI50 [41]: > 100 µM (inactive)
GI50 [42]: 88.9 µM (inactive)
GI50 [43]: 5.33 µM (inactive)
GI50 [44]: > 100 µM (inactive)
GI50 [45]: > 100 µM (inactive)
GI50 [46]: > 100 µM (inactive)
GI50 [47]: > 100 µM (inactive)
GI50 [48]: > 100 µM (inactive)
GI50 [49]: > 100 µM (inactive)
GI50 [50]: 41.6 µM (inactive)
GI50 [51]: > 100 µM (inactive)
GI50 [52]: > 100 µM (inactive)
GI50 [53]: > 100 µM (inactive)
GI50 [54]: 89.3 µM (inactive)
GI50 [55]: 79.8 µM (inactive)
GI50 [56]: > 100 µM (inactive)
GI50 [57]: > 100 µM (inactive)
GI50 [58]: > 100 µM (inactive)

NC1CCCCC1NCCNC1CCCCC1N (stereo unspecified)
GI50 [1]: > 100 µM (inactive)
GI50 [2]: > 100 µM (inactive)
GI50 [3]: 28.8 µM (inactive)
GI50 [4]: > 100 µM (inactive)
GI50 [5]: > 100 µM (inactive)
GI50 [6]: 82.4 µM (inactive)
GI50 [7]: 36.4 µM (inactive)
GI50 [8]: 15.9 µM (inactive)
GI50 [9]: > 100 µM (inactive)
GI50 [10]: > 100 µM (inactive)
GI50 [11]: 32.8 µM (inactive)
GI50 [12]: 47.5 µM (inactive)
GI50 [13]: > 100 µM
GI50 [14]: > 100 µM (inactive)
GI50 [15]: 53.7 µM (inactive)
GI50 [16]: 41.5 µM (inactive)
GI50 [17]: 17.7 µM (inactive)
GI50 [18]: 44.7 µM (inactive)
GI50 [19]: 75.7 µM (inactive)
GI50 [20]: 49.2 µM (inactive)
GI50 [21]: > 100 µM (inactive)
GI50 [22]: 86.5 µM (inactive)
GI50 [23]: > 100 µM (inactive)
GI50 [24]: 45.9 µM (inactive)
GI50 [25]: > 100 µM (inactive)
GI50 [26]: > 100 µM (inactive)
GI50 [27]: > 100 µM (inactive)
GI50 [28]: 36.1 µM (inactive)
GI50 [29]: > 100 µM (inactive)
GI50 [30]: > 100 µM (inactive)
GI50 [31]: 29.9 µM (inactive)
GI50 [32]: > 100 µM (inactive)
GI50 [33]: > 100 µM (inactive)
GI50 [34]: > 100 µM (inactive)
GI50 [35]: > 100 µM (inactive)
GI50 [36]: 47.2 µM (inactive)
GI50 [37]: 20.9 µM (inactive)
GI50 [38]: > 100 µM (inactive)
GI50 [39]: > 100 µM (inactive)
GI50 [59]: > 100 µM (inactive)
GI50 [40]: > 100 µM (inactive)
GI50 [41]: > 100 µM (inactive)
GI50 [42]: > 100 µM (inactive)
GI50 [43]: > 100 µM (inactive)
GI50 [44]: > 100 µM (inactive)
GI50 [45]: > 100 µM (inactive)
GI50 [46]: > 100 µM (inactive)
GI50 [47]: > 100 µM (inactive)
GI50 [48]: > 100 µM (inactive)
GI50 [49]: > 100 µM (inactive)
GI50 [51]: > 100 µM (inactive)
GI50 [52]: 41.6 µM (inactive)
GI50 [53]: > 100 µM (inactive)
GI50 [54]: > 100 µM (inactive)
GI50 [55]: 30.5 µM (inactive)
GI50 [56]: > 100 µM (inactive)
GI50 [57]: > 100 µM (inactive)
GI50 [58]: > 100 µM (inactive)
